# According to patent US20070021434A1, “NON-NUCLEOSIDE ANTI-HEPACIVIRUS AGENTS AND USES THEREOF” (Migenix Inc., priority 2005, published 2007):
# Biological target: HCV RdRp (NS5B) (UniProt P26663)
# Format: biochemical, hepatitis C virus
# HCV RdRp (NS5B), sequence (P26663 whole entry, looked up): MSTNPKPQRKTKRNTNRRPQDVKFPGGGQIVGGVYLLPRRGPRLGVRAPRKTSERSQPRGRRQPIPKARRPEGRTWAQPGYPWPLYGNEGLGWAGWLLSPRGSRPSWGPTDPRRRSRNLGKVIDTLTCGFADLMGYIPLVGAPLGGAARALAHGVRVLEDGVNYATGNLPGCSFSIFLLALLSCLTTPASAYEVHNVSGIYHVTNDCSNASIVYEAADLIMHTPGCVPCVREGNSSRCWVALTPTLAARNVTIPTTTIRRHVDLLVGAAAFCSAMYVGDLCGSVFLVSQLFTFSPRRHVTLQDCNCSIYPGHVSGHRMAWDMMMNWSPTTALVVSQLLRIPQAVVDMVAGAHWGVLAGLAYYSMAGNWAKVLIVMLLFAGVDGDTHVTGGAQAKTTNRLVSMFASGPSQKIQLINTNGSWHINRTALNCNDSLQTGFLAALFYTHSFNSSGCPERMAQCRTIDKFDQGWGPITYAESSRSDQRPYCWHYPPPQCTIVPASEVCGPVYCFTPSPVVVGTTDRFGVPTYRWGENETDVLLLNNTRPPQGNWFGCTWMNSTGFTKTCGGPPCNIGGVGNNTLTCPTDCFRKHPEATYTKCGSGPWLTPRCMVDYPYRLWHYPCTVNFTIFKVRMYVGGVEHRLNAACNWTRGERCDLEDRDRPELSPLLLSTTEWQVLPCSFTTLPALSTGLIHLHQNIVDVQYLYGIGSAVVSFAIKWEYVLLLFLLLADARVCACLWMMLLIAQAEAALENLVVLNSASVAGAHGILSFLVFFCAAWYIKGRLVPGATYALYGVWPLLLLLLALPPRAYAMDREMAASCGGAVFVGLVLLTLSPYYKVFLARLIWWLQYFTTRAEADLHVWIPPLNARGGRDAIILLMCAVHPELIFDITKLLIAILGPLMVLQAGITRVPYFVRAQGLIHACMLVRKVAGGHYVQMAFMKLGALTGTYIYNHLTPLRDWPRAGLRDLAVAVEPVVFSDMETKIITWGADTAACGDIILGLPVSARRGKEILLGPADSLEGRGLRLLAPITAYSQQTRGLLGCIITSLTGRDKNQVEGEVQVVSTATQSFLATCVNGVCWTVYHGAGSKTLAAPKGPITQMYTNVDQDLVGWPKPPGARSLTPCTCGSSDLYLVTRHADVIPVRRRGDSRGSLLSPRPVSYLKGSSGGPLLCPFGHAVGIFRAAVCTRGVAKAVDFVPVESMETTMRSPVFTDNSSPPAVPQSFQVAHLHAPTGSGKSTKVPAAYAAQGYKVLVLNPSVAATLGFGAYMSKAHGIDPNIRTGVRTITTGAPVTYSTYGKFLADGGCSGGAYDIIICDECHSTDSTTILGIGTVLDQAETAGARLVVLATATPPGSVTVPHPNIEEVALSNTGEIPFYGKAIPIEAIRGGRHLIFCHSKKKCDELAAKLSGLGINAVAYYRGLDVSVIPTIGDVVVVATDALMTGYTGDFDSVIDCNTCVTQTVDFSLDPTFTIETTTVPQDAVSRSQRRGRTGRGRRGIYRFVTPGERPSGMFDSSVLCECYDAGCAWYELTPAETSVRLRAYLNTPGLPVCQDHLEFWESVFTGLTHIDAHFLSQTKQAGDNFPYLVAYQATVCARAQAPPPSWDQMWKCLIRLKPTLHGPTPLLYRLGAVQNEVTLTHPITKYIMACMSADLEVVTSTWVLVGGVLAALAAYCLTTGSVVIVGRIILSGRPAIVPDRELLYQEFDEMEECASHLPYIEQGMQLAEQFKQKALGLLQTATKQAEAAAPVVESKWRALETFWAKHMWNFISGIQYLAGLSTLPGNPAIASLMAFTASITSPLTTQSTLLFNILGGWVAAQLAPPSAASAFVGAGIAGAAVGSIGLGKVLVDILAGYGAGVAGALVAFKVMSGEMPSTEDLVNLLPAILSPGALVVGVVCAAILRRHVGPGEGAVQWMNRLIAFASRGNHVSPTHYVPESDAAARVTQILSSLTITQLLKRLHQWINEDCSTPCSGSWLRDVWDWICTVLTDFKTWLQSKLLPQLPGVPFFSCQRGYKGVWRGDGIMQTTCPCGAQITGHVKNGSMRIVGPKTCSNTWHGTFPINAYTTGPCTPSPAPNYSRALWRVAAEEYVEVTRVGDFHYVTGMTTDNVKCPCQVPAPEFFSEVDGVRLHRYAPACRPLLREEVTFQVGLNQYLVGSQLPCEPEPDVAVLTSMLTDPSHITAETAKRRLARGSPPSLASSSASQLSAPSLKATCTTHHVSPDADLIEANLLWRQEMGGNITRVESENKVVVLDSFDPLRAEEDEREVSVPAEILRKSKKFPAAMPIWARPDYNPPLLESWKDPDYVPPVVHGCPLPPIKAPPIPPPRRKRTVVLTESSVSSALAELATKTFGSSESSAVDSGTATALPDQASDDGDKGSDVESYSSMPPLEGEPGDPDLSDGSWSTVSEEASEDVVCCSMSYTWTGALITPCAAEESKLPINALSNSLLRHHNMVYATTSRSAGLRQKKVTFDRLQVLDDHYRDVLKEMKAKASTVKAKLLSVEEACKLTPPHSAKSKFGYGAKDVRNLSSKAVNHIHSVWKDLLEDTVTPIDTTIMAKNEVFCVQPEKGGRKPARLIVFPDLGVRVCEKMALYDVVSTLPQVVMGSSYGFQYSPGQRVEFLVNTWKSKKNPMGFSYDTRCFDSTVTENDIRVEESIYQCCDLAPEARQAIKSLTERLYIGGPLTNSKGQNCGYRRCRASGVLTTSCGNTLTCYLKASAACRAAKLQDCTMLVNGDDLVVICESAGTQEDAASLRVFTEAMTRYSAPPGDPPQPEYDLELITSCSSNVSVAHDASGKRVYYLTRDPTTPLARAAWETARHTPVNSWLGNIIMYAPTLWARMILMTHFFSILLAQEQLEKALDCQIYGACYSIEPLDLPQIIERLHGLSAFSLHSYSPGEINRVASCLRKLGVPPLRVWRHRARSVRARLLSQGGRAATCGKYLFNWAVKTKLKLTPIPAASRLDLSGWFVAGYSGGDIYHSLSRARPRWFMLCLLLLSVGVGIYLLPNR
row,SMILES,IC50 [µM]
1,"CCCCNC(=O)[C@H](CCCCN)NC(=O)Nc1ccc(OCc2ccccc2)cc1 [Compound 258, (S)-6-AMINO-2-[3-(4-BENZYLOXY-PHENYL)-UREIDO]-HEXANOIC ACID BUTYLAMIDE]",> 50
2,"Cc1ccc(NC(=O)C(CCCCN)NC(=O)c2ccc(C)c3ccccc23)cc1 [Compound 62, (S)-4-METHYL-NAPHTHALENE-1-CARBOXYLIC ACID (5-AMINO-1-P-TOLYLCARBAMOYL-PENTYL)-AMIDE]",> 50
3,"NCCCCCCNC(=O)C(Cc1ccccc1)NC(=O)Nc1ccc(OCc2ccccc2)cc1 [Compound 263, (S)—NR-(6-AMINO-HEXYL)-2-13-(4-BENZYLOXY-PHENYL)-UREIDO]-3-PHENYL-PROPIONAMIDE]",10 to 50
4,"Cc1ccc(NC(=O)C(CCCCN)NC(=O)C2c3ccccc3-c3ccccc32)cc1 [Compound 52, (S)-9H-FLUORENE-9-CARBOXYLIC ACID (5-AMINO-1-P-TOLYLCARBAMOYL-PENTYL)-AMIDE]",> 50
5,"COc1ccccc1NCC(=O)N[C@@H](CCCCN)C(=O)Nc1ccc(C)cc1 [Compound 357, (S)-6-AMINO-2-[2-(2-METHOXY-PHENYLAMINO)-ACETYLAMINO]-HEXANOIC ACID P-TOLYLAMIDE]",> 50
6,"Cc1ccc(NC(=O)C(CNC(=O)CCN)NC(=O)OCC2c3ccccc3-c3ccccc32)cc1 [Compound 178, (S)-[2-(3-AMINO-PROPIONYLAMINO)-1-P-TOLYLCARBAMOYL-ETHYL]-CARBAMIC ACID 9H-FLUOREN-9-YLMETHYL ESTER]",10 to 50
7,"Cc1cc2cc(NC(=O)[C@H](CCCCNC(=O)CN)NC(=O)OCC3c4ccccc4-c4ccccc43)ccc2[nH]1 [Compound 233, (S)-[5-(2-AMINO-ACETYLAMINO)-1-(2-METHYL-1H-INDOL-5-YLCARBAMOYL)-PENTYL]-CARBAMIC ACID 9H-FLUOREN-9-YLMETHYL ESTER]",< 10
8,"NCCCCN(CC(=O)Nc1ccc(C2CCCCC2)cc1)C(=O)Nc1ccc(OCc2ccccc2)cc1 [Compound 323, 2-[1-(4-AMINO-BUTYL)-3-(4-BENZYLOXY-PHENYL)-UREIDO]-N-(4-CYCLOHEXYL-PHENYL)-ACETAMIDE]",> 50
9,"Cc1ccc(NC(=O)C(CCCCN)NC(=O)CNc2ccc(C(F)(F)F)cc2)cc1 [Compound 365, (S)-6-AMINO-2-[2-(4-TRIFLUOROMETHYL-PHENYLAMINO)-ACETYLAMINO]-HEXANOIC ACID P-TOLYLAMIDE]",> 50
10,"CC(C)(C)c1ccc(NC(=O)[C@H](Cc2ccc(CN)cc2)NC(=O)Nc2ccc(-c3ccccc3)cc2)cc1 [Compound 150, (S)-3-(4-AMINOMETHYL-PHENYL)-2-(3-BIPHENYL-4-YL-UREIDO)-N-(4-TERT-BUTYL-PHENYL)-PROPIONAMIDE]",< 10
11,"Cc1ccc(NC(=O)C(CCCCN)NC(=O)C(N)Cc2cccc3ccccc23)cc1 [Compound 77, (S)-6-AMINO-2-(2-(S)-AMINO-3-NAPHTHALEN-1-YL-PROPIONYLAMINO)-HEXANOIC ACID P-TOLYLAMIDE]",> 50
12,"COc1ccc(S(=O)(=O)N[C@@H](CCCCN)C(=O)Nc2ccc(C)cc2)cc1OC [Compound 386, (S)-6-AMINO-2-(3,4-DIMETHOXY-BENZENESULFONYLAMINO)-HEXANOIC ACID P-TOLYLAMIDE]",> 50
13,"Cc1ccc(NC(=O)[C@H](CCCCN)NC(=O)Nc2ccc(OCc3ccc(Cl)cc3Cl)cc2)cc1 [Compound 274, (S)-6-AMINO-2-{3-[4-(2,4-DICHLORO-BENZYLOXY)-PHENYL]-UREIDO}-HEXANOIC ACID P-TOLYLAMIDE]",< 10
14,"NCCCCCCNC(=O)C(NC(=O)Nc1ccc(OCc2ccccc2)cc1)c1ccccc1 [Compound 319, (S)-NR-(6-AMINO-HEXYL)-2-[3-(4-BENZYLOXY-PHENYL)-UREIDO]-2-PHENYL-ACETAMIDE]",< 10
15,"NCCCC[C@H](NC(=O)OCC1c2ccccc2-c2ccccc21)C(=O)Nc1cc(-c2ccccc2)n[nH]1 [Compound 267, (S)-[5-AMINO-1-(5-PHENYL-2H-PYRAZOL-3-YLCARBAMOYL)-PENTYL]-CARBAMIC ACID 9H-FLUOREN-9-YLMETHYL ESTER]",10 to 50
16,"NCCC[C@H](NC(=O)OCC1c2ccccc2-c2ccccc21)C(=O)Nc1ccc(CN(C(=O)c2ccco2)C2CCCCC2)cc1 [Compound 15, (S)-[4-AMINO-1-(4-{[CYCLOHEXYL-(FURAN-2-CARBONYL)-AMINO]-METHYL}-PHENYLCARBAMOYL)-BUTYL]-CARBAMIC ACID 9H-FLUOREN-9-YLMETHYL ESTER]",10 to 50
17,"NCCCC[C@H](NC(=O)OCC1c2ccccc2-c2ccccc21)C(=O)Nc1cccc(OCc2ccccc2)c1 [Compound 211, (S)-[5-AMINO-1-(3-BENZYLOXY-PHENYLCARBAMOYL)-PENTYL]-CARBAMIC ACID 9H-FLUOREN-9-YLMETHYL ESTER]",10 to 50
18,"Cc1ccc(NC(=O)C(Cc2cccs2)NC(=O)OCC2c3ccccc3-c3ccccc32)cc1 [Compound 381, (S)-(2-THIOPHEN-2-YL-1-P-TOLYLCARBAMOYL-ETHYL)-CARBAMIC ACID 9H-FLUOREN-9-YLMETHYL ESTER]",> 50
19,"Cc1ccc(NC(=O)CN(CCCCN)C(=O)Nc2ccc(OCc3ccccc3)cc2)cc1 [Compound 278, 2-[1-(4-AMINO-BUTYL)-3-(4-BENZYLOXY-PHENYL)-UREIDO]-N-P-TOLYL-ACETAMIDE]",10 to 50

row,SMILES,IC50 [µM]
1,"CC(C)(C)Oc1ccc(C[C@H](N)C(=O)Nc2ccc(CN(C(=O)c3ccco3)C3CCCCC3)cc2)cc1 [Compound 8, (S)-FURAN-2-CARBOXYLIC ACID {4-[2-AMINO-3-(4-TERT-BUTOXY-PHENYL)-PROPIONYLAMINO]-BENZYL}-CYCLOHEXYL-AMIDE]",> 50
2,"CCNCC(=O)NCCCC(NC(=O)OCC1c2ccccc2-c2ccccc21)C(=O)Nc1ccc(C)cc1 [Compound 242, (S)-[4-(2-ETHYLAMINO-ACETYLAMINO)-1-P-TOLYLCARBAMOYL-BUTYL]-CARBAMIC ACID 9H-FLUOREN-9-YLMETHYL ESTER]",< 10
3,"Cc1ccc(NC(=O)C(NC(=O)OCC2c3ccccc3-c3ccccc32)C(C)O)cc1 [Compound 376, (2+/−,3S)-(2-HYDROXY-1-P-TOLYLCARBAMOYL-PROPYL)-CARBAMIC ACID 9H-FLUOREN-9-YLMETHYL ESTER]",> 50
4,"Cc1ccc(NC(=O)[C@H](CCCCN)NC(=O)Nc2ccc(OCc3cccc(F)c3)cc2)cc1 [Compound 249, (S)-6-AMINO-2-{3-[4-(3-FLUORO-BENZYLOXY)-PHENYL]-UREIDO}-HEXANOIC ACID P-TOLYLAMIDE]",10 to 50
5,"CC(=O)Nc1cccc(NC(=O)[C@H](CCCCN)NC(=O)OCC2c3ccccc3-c3ccccc32)c1 [Compound 231, (S)-[1-(3-ACETYLAMINO-PHENYLCARBAMOYL)-5-AMINO-PENTYL]-CARBAMIC ACID 9H-FLUOREN-9-YLMETHYL ESTER]",> 50
6,"Cc1ccc(NC(=O)[C@H](CCCCO)NC(=O)Nc2ccc(OCc3ccccc3)cc2)cc1 [Compound 309, (S)-2-[3-(4-BENZYLOXY-PHENYL)-UREIDO]-6-HYDROXY-HEXANOIC ACID P-TOLYLAMIDE]",> 50
7,"CC(C)(C)c1ccc(NC(=O)[C@H](Cc2ccc(CN)cc2)NC(=O)NC(c2ccccc2)c2ccccc2)cc1 [Compound 151, (S)-3-(4-AMINOMETHYL-PHENYL)-2-(3-BENZHYDRYL-UREIDO)-N-(4-TERT-BUTYL-PHENYL)-PROPIONAMIDE]",< 10
8,"CC(=O)NCCCCC(NC(=O)OCC1c2ccccc2-c2ccccc21)C(=O)Nc1ccc(C)cc1 [Compound 181, (S)-(5-ACETYLAMINO-1-P-TOLYLCARBAMOYL-PENTYL)-CARBAMIC ACID 9H-FLUOREN-9-YLMETHYL ESTER]",> 50
9,"COc1ccc(CNCC(=O)N[C@@H](CCCCN)C(=O)Nc2ccc(C)cc2)cc1 [Compound 343, (S)-6-AMINO-2-[2-(4-METHOXY-BENZYLAMINO)-ACETYLAMINO]-HEXANOIC ACID P-TOLYLAMIDE]",> 50
10,"Cc1ccc(NC(=O)C(CCCCN)NC(=O)CNCc2cccc(C(F)(F)F)c2)cc1 [Compound 351, (S)-6-AMINO-2-[2-(3-TRIFLUOROMETHYL-BENZYLAMINO)-ACETYLAMINO]-HEXANOIC ACID P-TOLYLAMIDE]",> 50
11,"Cc1ccc(NC(=O)C(CCCCN)NC(=O)c2cccc3ccccc23)cc1 (centres unmarked) [Compound 79, NAPHTHALENE-1-CARBOXYLIC ACID (5-AMINO-1-P-TOLYLCARBAMOYL-PENTYL)-AMIDE]",> 50
12,"NCCCC[C@H](NC(=O)Nc1ccc(OCc2ccccc2)cc1)C(=O)NCCO [Compound 260, (S)-6-AMINO-2-[3-(4-BENZYLOXY-PHENYL)-UREIDO]-HEXANOIC ACID (2-HYDROXY-ETHYL)-AMIDE]",> 50
13,"Cc1ccc(NC(=O)C(CCCCN)NC(=O)CN(c2ccccc2)C2CCCCC2)cc1 [Compound 354, (S)-6-AMINO-2-[2-(CYCLOHEXYL-PHENYL-AMINO)-ACETYLAMINO]-HEXANOIC ACID P-TOLYLAMIDE]",> 50
14,"Cc1ccc(NC(=O)[C@H](CCCCN)NC(=O)Nc2ccc(OCc3cc(F)ccc3F)cc2)cc1 [Compound 286, (S)-6-AMINO-2-{3-[4-(2,5-DIFLUORO-BENZYLOXY)-PHENYL]-UREIDO}-HEXANOIC ACID P-TOLYLAMIDE]",< 10
15,"COC(=O)[C@H](Cc1c[nH]c2ccccc12)NC(=O)C(CCCCN)NC(=O)OCC1c2ccccc2-c2ccccc21 (stereo partly drawn) [Compound 58, (S)-2-[6-AMINO-2-((9H-FLUOREN-9-YLMETHOXYCARBONYL)AMINO)-HEXANOYL-(R)-AMINO]-3-(1H-INDOL-3-YL)-PROPIONIC ACID METHYL ESTER]",> 50
16,"Cc1cc2cc(NC(=O)[C@H](Cc3ccc(CN)cc3)NC(=O)OCC3c4ccccc4-c4ccccc43)ccc2[nH]1 [Compound 215, (S)-[2-(4-AMINOMETHYL-PHENYL)-1-(2-METHYL-1H-INDOL-5-YLCARBAMOYL)-ETHYL]-CARBAMIC ACID 9H-FLUOREN-9-YLMETHYL ESTER]",10 to 50
17,"Cc1ccc(NC(=O)C(CCCCN)NC(=O)Nc2cccc(-c3nc4ccccc4o3)c2)cc1 [Compound 257, (S)-6-AMINO-2-[3-(3-BENZOOXAZOL-2-YL-PHENYL)-UREIDO]-HEXANOIC ACID P-TOLYLAMIDE]",> 50
18,"Cc1ccc(NC(=O)C(CCCCNC(=O)CN)NC(=O)OCC2c3ccccc3-c3ccccc32)cc1 [Compound 176, (S)-[5-(2-AMINO-ACETYLAMINO)-1-P-TOLYLCARBAMOYL-PENTYL]-CARBAMIC ACID 9H-FLUOREN-9-YLMETHYL ESTER]",< 10
19,"Cc1ccc(NC(=O)[C@H](CCCCN)NS(=O)(=O)c2cccc3nonc23)cc1 [Compound 398, (S)-6-AMINO-2-(BENZO[1,2,5]OXADIAZOLE-4-SULFONYLAMINO)-HEXANOIC ACID P-TOLYLAMIDE]",> 50
